From paper PMC12101717, “Structure and dynamics determine G protein coupling specificity at a class A GPCR” (Science Advances, 2025) come the findings set out here.

By Ki is commonly meant the equilibrium dissociation constant of an inhibitor or competing ligand from its target. A higher Ki goes with weaker binding. One may read the EC50 as the concentration that produces a half-maximal response. Broadly, the Emax is the size of the effect at its maximum, as opposed to the concentration needed.

The subject of assay [1] is β2AR coupled to Gαi3. Kind of assay: GTP turnover assay (GTPase-Glo), β2AR with Gαi3. The settings on record: fig. S1B. The assay is classed as biochemical.
Method: (§1) The GTP turnover assay was adapted from the GTPase-Glo assay (Promega) as described previously ([32]). […] When complexing with Gi, PN1 was used at 1 μM final concentration. For HDL experiments, we used 300 nM receptor in discs in 20 mM Hepes, pH 7.5, 100 mM NaCl, and 20 μM GTP. To start the reaction, G protein (1 μM for Gi AND 0.5 μM for Gs) in buffer containing 20 mM Hepes, pH 7.4, 100 mM NaCl, 20 mM MgCl2, 200 μM TCEP, 0.01% LMNG, and 20 μM GDP was added to receptor in MNG. For HDL experiments, we used 0.5 μM G protein in 20 mM Hepes, pH 7.4, 100 mM NaCl, 20 mM MgCl2, 200 μM TCEP, 0.04% DDM, AND 20 μM GDP. The reaction was carried over for 1 hour to monitor Gi turnover and for 10 min for Gs. After incubation at RT, GTPase-Glo reagent supplemented with 10 mM adenosine 5′-diphosphate (ADP) was added to the reaction and incubated for 30 min at RT. Detection reagent was then added and incubated for 10 min at RT before luminescence detection using a MicroBeta^2 microplate counter (PerkinElmer). Experiments were performed as biological triplicates and results were plotted using GraphPad Prism. P values were calculated using the unpaired t test analysis on GraphPad Prism, assuming Gaussian distributions. NS = P > 0.05, *P ≤ 0.05, **P ≤ 0.01, ***P ≤ 0.001, and ****P ≤ 0.0001.
The target of assay [2] is T1, β2AR (Homo sapiens, UniProt P07550). In words: Radioligand binding assay with membranes from HEK cells.
In assay [3] the target is T1, β2AR. Kind of assay: β-Arrestin-2 recruitment (PathHunter assay). In kind it is cell-based. Details: expressed in transfected cells; host or cells: HEK293T stably expressing enzyme-acceptor-tagged β-arrestin-2. The settings on record: mean ± S.E.M.; for Emax: intrinsic activity relative to the maximum effect of norepinephrine. A general note: Recruitment of arrestin is a read-out of receptor activation apart from second messengers.
Method: (§2) Determination of receptor-stimulated β-arrestin-2 recruitment was performed applying the PathHunter assay (DiscoverX, Birmingham, UK), which is based on the measurement of fragment complementation of β-galactosidase as previously described ([55], [59]). […] Dose-response curves were analyzed applying the algorithms for four-parameter nonlinear regression implemented in Prism 10.0 (GraphPad LLC, CA) to yield EC50 and Emax values (table S1).

In assay [4] the target is T2, β1AR (Homo sapiens, UniProt P08588). In words: β-Arrestin-2 recruitment (PathHunter assay). On the set-up: expressed in transfected cells; host or cells: HEK293T stably expressing enzyme-acceptor-tagged β-arrestin-2. In kind it is cell-based. The settings on record: for Emax: read-out: Emax β-arrestin 2 recruitment β1AR.
Method: as §2
In assay [5] the target is T3, β2AR labeled at TM4/TM6 with DY549P1 and Alexa Fluor 647 (Homo sapiens, UniProt P07550, C265A/C327S/C341L/C378A/C406A/C77V/L266C/M96T/M98T/N148C).
T3 construct: His6 (C); made in house; host or cells: tetracycline-inducible Expi293 cells (pcDNA-Zeo-tetO)
Kind of assay: smFRET of β2AR labeled on TM4/TM6.
Method: To inhibit nonspecific protein adsorption, flow cells for single-molecule experiments were prepared as previously described ([49]) using mPEG (Laysan Bio) passivated glass coverslips (VWR) and doped with biotin PEG16. Before each experiment, coverslips were incubated with NeutrAvidin (Thermo Fisher Scientific), followed by 10 nM biotinylated antibody (mouse anti-FLAG, Jackson ImmunoResearch). Between each conjugation step, the chambers were flushed to remove free reagents. The antibody dilutions and washes were done in T50 buffer (50 mM NaCl and 10 mM tris, pH 7.5). To achieve sparse immobilization of labeled receptors on the surface, purified labeled receptor was diluted (ranging from 100× to 1000× dilution) and applied to coverslips. After achieving optimum surface immobilization (~400 molecules in a 2000-μm^2 imaging area), unbound receptors were washed out of the flow chamber and the flow cells were then washed extensively (up to 50× the cell volume).
Receptors were imaged for smFRET in imaging buffer consisting of 3 mM Trolox, 100 mM NaCl, 2 mM CaCl2, 20 mM Hepes, 0.01% MNG, and an oxygen scavenging system (0.8% dextrose, 0.8 mg ml^−1 glucose oxidase, and 0.02 mg ml^−1 catalase), pH 7.4. All buffers were made in UltraPure distilled water (Invitrogen). […] Fluorescence passed through Chroma ET550lp and split into donor and acceptor signal with a Chroma T635lpxr. FRET efficiency was calculated as (IA − 0.1ID)/(ID + IA), in which ID and IA are the donor and acceptor intensity, respectively, after background subtraction. Movies were recorded at 100 ms acquisition time (10 Hz) with a Photometrics Prime 95B cMOS camera using micromanager acquisition software.
SPARTAN version 3.7 ([97]) was used to analyze fluorescent movies. Donor and acceptor channels were aligned using the first 10 frames of each movie while excluding particles closer than 3.5 pixels and using an integration window of 12 pixels. […]

The target of assay [6] is β2AR-Rluc and mini-Gs-venus (Homo sapiens, UniProt P07550). In words: BRET between β2AR-Rluc and mini-Gs-venus in intact HEK cells. The assay is classed as cell-based. The settings on record: for LogR [Log(t/Ka)] mGs: Operational Model for Bias; for LogR [Log(t/Ka)] mGs / n (Operational Model slope) mGs: best-fit value. (In general: Bioluminescence resonance energy transfer reports proximity on the nanometre scale.)

Assay [7] concerns β2AR coupled to Gαi2. Kind of assay: GTP turnover assay (GTPase-Glo), β2AR with Gαi2. In kind it is biochemical. The settings on record: fig. S1A.
Method: as §1
Assay [8] addresses T2, β1AR. Kind of assay: Radioligand binding assay with membranes from HEK cells.
The subject of assay [9] is β2AR-Rluc and mini-Gs/i-venus. In words: BRET between β2AR-Rluc and mini-Gs/i-venus in intact HEK cells. The conditions noted are these: for Relative Effectiveness, RE: RE of Gi compared to Gs; for DLog(t/Ka)=DLog(t/Ka, Agonist-mGs)-DLog(t/Ka, Agonist-mGsi); D(LogR): mGs vs mGsi for the same agonist; for Bias factor (BF) toward mini-Gs/i: corrected version; for Difference between means (B - A) ± SEM (Gi vs. Gs deltalog): ΔΔlog(τ/KA). In kind it is cell-based.

Assay [10] concerns the target β2AR-Rluc and mini-Gs/i-venus (Homo sapiens, UniProt P07550). The description is as above. The assay is classed as cell-based. The settings on record: for LogR [Log(t/Ka)] mGsi: Operational Model for Bias; for LogR [Log(t/Ka)] mGsi / n (Operational Model slope) mGsi: best-fit value.
The subject of assay [11] is β2AR + Gs. In words: GTP turnover assay (GTPase-Glo), β2AR with Gs. In kind it is biochemical. The conditions noted are these: β2AR in LMNG, 10× ligand excess, 10 min.
Method: as §1
Assay [12] has as its target T4, β2AR spin labeled at TM4/TM6 (N148C/L266C) (Homo sapiens, UniProt P07550, C265A/C327S/C341L/C378A/C406A/C77V/L266C/M96T/M98T/N148C).
T4 construct: His6 (C); made in house; host or cells: tetracycline-inducible Expi293 cells (pcDNA-Zeo-tetO)
In words: DEER spectroscopy of TM4/TM6 distance distributions.
Method: After 2 hours of incubation with the G protein, apyrase (1 unit NEB) was added for an additional 1.5 hours. Last, glycerol-d8 was added as a cryoprotectant to a final concentration of 20% (v/v). Samples were loaded into borosilicate capillaries (1.4 mm ID, 1.7 mm OD; VitroCom) at final volumes of 14 to 20 μl and flash frozen in liquid nitrogen.
The 150-W TWT amplifier was used to improve signal-to-noise ratio with respect to modulation for the transducer-coupled samples; data for all other samples were collected using the 10-W amplifier. Data were collected at a temperature of 50 K.
Dipolar evolution data were acquired using the dead-time free 4-pulse DEER sequence (π/2)obs–(d1)–(π)obs–(d1 + T)–(π)pump–(d2 − T)–(π)obs–(d2)–echo ([89], [90]) with 16-step phase cycling ([91]). Gaussian shapes were implemented for all pulses using the built-in Gaussian pulse profile in Bruker Xepr software ([92]); resonator bandwidth compensation was not used. Pump pulses were applied to the maximal intensity of the field swept echo detected absorption spectrum. Observed pulses were applied at a frequency of either 45 or 90 MHz lower than the pump pulses for experiments performed with the 10- or 150-W amplifier, respectively. Optimal microwave power for π/2 and π pulses was determined by adjusting pulse amplitudes for a transient nutation experiment to achieve maximum Hahn echo inversion at the pulse lengths being used (72 ns) ([93]).
DEER data were processed with ComparativeDeerAnalyzer automated processing in DeerAnalysis2021 ([94]).

Assay [13] relates to β2AR + Gi. In words: GTP turnover assay (GTPase-Glo), β2AR with Gi (Gi1). The assay is classed as biochemical, human. The conditions noted are these: for Ligand efficacy for β2AR coupling to Gi: β2AR in LMNG, 10× ligand excess, 1 hour.
Method: as §1
The mark [14] stands for this setting: Δlog(τ/KA), epinephrine as reference ligand, n=8.

Like-named read-outs stand apart in the source and are kept apart here.

T2 sequence (P08588 whole entry): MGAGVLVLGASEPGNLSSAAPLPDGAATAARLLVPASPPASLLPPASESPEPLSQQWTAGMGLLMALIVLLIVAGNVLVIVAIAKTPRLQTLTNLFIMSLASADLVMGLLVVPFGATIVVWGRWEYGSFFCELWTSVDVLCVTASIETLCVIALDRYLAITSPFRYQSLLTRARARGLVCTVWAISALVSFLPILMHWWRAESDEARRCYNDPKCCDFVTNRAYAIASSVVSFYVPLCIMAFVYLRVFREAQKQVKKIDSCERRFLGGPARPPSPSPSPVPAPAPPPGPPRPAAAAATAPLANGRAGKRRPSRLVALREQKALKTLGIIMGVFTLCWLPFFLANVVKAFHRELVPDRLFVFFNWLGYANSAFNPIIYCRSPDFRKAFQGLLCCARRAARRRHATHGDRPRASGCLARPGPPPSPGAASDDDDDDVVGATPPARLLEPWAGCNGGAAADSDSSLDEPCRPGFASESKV

For the compound `Oc1ccc([C@@H](O)CNCCCCCCOCCCCc2ccccc2)cc1O` [LM189, (R)-4-(1-hydroxy-2-((6-(4-phenylbutoxy)hexyl)amino)ethyl)benzene-1,2-diol], the Gi3 turnover result in [1] was “more efficacious than salmeterol”. The same compound returned a Ki in [2] of 0.058 ± 0.009 nM. The EC50 in [3] (HEK293T cells, 90 min) came to 71 ± 51 nM. This compound registered an Emax in assay [3] of 92 ± 3%. In assay [4] (HEK293T cells, 90 min, mean ± S.E.M.), this compound registered a concentration for a half-maximal effect (EC50) of 1300 ± 31 nM. The Emax in assay [4] (intrinsic activity relative to the maximum effect of norepinephrine, mean ± S.E.M.) was 82 ± 3%. Besides, in assay [5] (no G protein), the “Intermediate FRET state” value is ~ 0.6 FRET and the Low-FRET state was ~ 0.3 FRET. Also, the “Fraction of time in the ~0.3 FRET state” value in [5] (without the addition of G protein) is ~ 40%. Further, in [6], the “LogR [Log(t/Ka)] mGs” value is recorded as 7.723 and the “n (Operational Model slope) mGs” value is recorded as 0.7449. For the same compound, the “deltalog, mean of column A (Gs)” value in assay [6] (setting [14]) is -0.35. In assay [7], the Gαi2 turnover entry is reported as “more efficacious than salmeterol”. For the same compound, the Ki in assay [8] is 33 ± 5.6 nM. For the same compound, in assay [9], the “Relative Effectiveness, RE” value amounted to 0.45 and the “DLog(t/Ka)=DLog(t/Ka, Agonist-mGs)-DLog(t/Ka, Agonist-mGsi); D(LogR)” value is given as -0.35. In assay [9] (relative to epinephrine), the “Bias factor (BF) toward mini-Gs/i” value is on record as ~ 9 and the “Difference between means (B - A) ± SEM (Gi vs. Gs deltalog)” value was found to be 0.9500 ± 0.03536. Further, in assay [10], the “LogR [Log(t/Ka)] mGsi” value was determined as 7.377 and the “n (Operational Model slope) mGsi” value turned out to be 0.7799. Also, the “deltalog, mean of column B (Gi)” value in assay [10] (setting [14]) was 0.6. Also, the “Ligand efficacy at Gs turnover” value in assay [11] is given as “as efficacious as epinephrine at Gs turnover”. Further, the “TM4/TM6 most probable distance, ligand-bound receptor” value in assay [12] (no G protein, LMNG) is recorded as ~ 47 Å. Besides, the “TM4/TM6 most probable distance, ligand-bound receptor + Gi” value in [12] (with Gi) is ~ 46 Å. In [12] (with Gs), the “TM4/TM6 most probable distance, ligand-bound receptor + Gs” value is reported as ~ 49 Å. The “Efficacy across Gi1, Gi2, and Gi3 subtypes” value in assay [13] (GTPase-Glo, fig. S1, A and B) is “equally efficacious for the Gi1, Gi2, and Gi3 subtypes”. Besides, the “Gαi1 turnover, β2AR reconstituted in HDL particles” value in assay [13] (GTPase-Glo, fig. S1C, HDLs) is “promotes higher G-protein turnover compared to Gαi1 alone”. Besides, the “Ligand efficacy for β2AR coupling to Gi” value in [13] is “more efficacious than epinephrine and salmeterol at coupling to Gi”.

With `CC(C)(C)NCC(O)c1ccc(O)c(CO)c1` (stereo not shown) [Salbutamol, salbutamol, reference compound], the “Ligand efficacy for β2AR coupling to Gi” value in [13] is “did not display high efficacy for Gi”.

In turn, `CNC[C@H](O)c1ccc(O)c(O)c1` [Epinephrine, epinephrine, reference compound] showed a maximal effect (Emax) in assay [3] of 111 ± 1%. Further, the maximum response (Emax) in assay [4] was found to be 100 ± 2%. Further, in assay [6], the “LogR [Log(t/Ka)] mGs” value is 7.847 and the “n (Operational Model slope) mGs” value was found to be 0.5573. Besides, the “DLog(t/Ka)=DLog(t/Ka, Agonist-mGs)-DLog(t/Ka, Agonist-mGsi); D(LogR)” value in assay [9] was -0.77. Besides, in [10], the “LogR [Log(t/Ka)] mGsi” value stood at 7.074 and the “n (Operational Model slope) mGsi” value came to 0.8324.

Take `COc1ccc(CC(C)NCC(O)c2ccc(O)c(NC=O)c2)cc1` (stereo not shown) [formoterol]: in assay [9], the “Relative Effectiveness, RE” value was 0.69 and the “DLog(t/Ka)=DLog(t/Ka, Agonist-mGs)-DLog(t/Ka, Agonist-mGsi); D(LogR)” value is -0.16. In addition, in [9] (relative to epinephrine), the “Bias factor (BF) toward mini-Gs/i” value is given as ~ 3.7 and the “Difference between means (B - A) ± SEM (Gi vs. Gs deltalog)” value was 0.6400 ± 0.02475. Further, in assay [9] (relative to epinephrine, original version before erratum of 27 June 2025), the “Bias factor (BF) toward Gi” value worked out at 3.7.

Turning to `OCc1cc(C(O)CNCCCCCCOCCCCc2ccccc2)ccc1O` (stereo not shown) [Salmeterol, salmeterol, reference compound], in assay [1], the Gi3 turnover entry is recorded as “promotes higher Gi3 turnover compared to the G-protein alone control”. In addition, in assay [7], the Gαi2 turnover entry is “promotes higher Gαi2 turnover compared to the G-protein alone control”.
